For the assay, the system named is CD4+CD28null T cells from lung transplant recipients with BOS. Briefly: Inhibition of proliferation by cyclosporine A (BrdU incorporation, anti-CD3 stimulation). The class given is cell-based, human. The note with it: preliminary findings, n=2 subjects. As to the method:
Inhibition of Proliferation by Cyclosporine A (CsA) Segregated CD28+ and CD28null CD4 T-cell subpopulations were individually cultured in duplicate wells coated with anti-CD3 monoclonal antibody (OKT3) (see above). Autologous nurse cells, positively selected during the initial CD4 T-cell isolations (see above) were added in a 3:1 nurse cell:CD4 T-cell ratio. In order to eliminate potential confounding by CD4dim monocytes, all CD4+ cells were depleted from the nurse cells (<<1% residual), prior to their use in cultures, by positive selection with anti-CD4-coated magnetic beads (Invitrogen, Carlsbad, Calif.). Cyclosporine (Novartis, East Hanover, N.J.) to a final concentration of 100 ng/ml was added to half the wells. Proliferation within the respective CD4 subpopulations were measured by bromodeoxyuridine (BrdU) incorporation, using reagents and methods supplied in a kit (BD Pharmingen). In brief, BrdU in a final concentration of 10 μM was added to cultures two days prior to their harvests. After 5±1 days of culture, cells were harvested from wells and stained with anti-CD4, fixed and permeabilized, and then incubated with anti-BrdU and 7-amino-actinomycin (7-AAD). The proportion of proliferating CD4+ T cells (BrdU+) among the viable cells (≧diploid DNA content) was determined by flow cytometry.
(Incorporation of labelled thymidine or its analogues reports DNA synthesis.)

On to `C=CC[C@@H]1/C=C(\C)C[C@H](C)C[C@H](OC)[C@H]2O[C@@](O)(C(=O)C(=O)N3CCCC[C@H]3C(=O)O[C@H](/C(C)=C/[C@@H]3CC[C@@H](O)[C@H](OC)C3)[C@H](C)[C@@H](O)CC1=O)[C@H](C)C[C@@H]2OC` [tacrolimus], for which the “resistance of the cells to the drug” value is “relatively resistant”.

Values taken from patent US20110111437A1, “Biomarkers For Prognosis of Pulmonary Diseases” (THE UNIVERSITY OF PITTSBURGH-OF THE COMMONWEALTH SYSTEM OF …, priority 2009, published 2011).
